Source: patent US5488060A, “Substituted thiadiazoles, compositions containing them and their use as antimicrobial and marine antifouling agents” (The Dow Chemical Company, priority 1994, dated 1996)
Values after ≈ are worked out from the molar mass of the structure shown. Where two headings read alike, the source gives them in different places.

Legend:
Type in all cases: cell-based
[1] = system: Bacillus subtilis (Bs); experiment: Minimum inhibitory concentration (MIC) in nutrient agar, Bacillus subtilis
Method in brief: (§1)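 Agar dilution in nutrient agar at pH 6.8 and pH 8.2 (tricine-buffered), compound at 0–500 ppm from a 1% acetone/water solution. Replicator inoculation from 10^8 CFU/mL suspensions; plates incubated 48 h at 30° C. MIC is the lowest concentration preventing growth.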

[2] = system: Enterobacter aerogenes (Ea); experiment: Minimum inhibitory concentration (MIC) in nutrient agar, Enterobacter aerogenes; settings: Klebsiella aerogenes, 48 h
Method in brief: as §1

[3] = system: Escherichia coli (Ec); experiment: Minimum inhibitory concentration (MIC) in nutrient agar, Escherichia coli
Method in brief: as §1

[4] = system: Klebsiella pneumoniae (Kp); experiment: Minimum inhibitory concentration (MIC) in nutrient agar, Klebsiella pneumoniae
Method in brief: as §1

[5] = system: Proteus vulgaris (Pv); experiment: Minimum inhibitory concentration (MIC) in nutrient agar, Proteus vulgaris; settings: 48 h
Method in brief: as §1

[6] = system: Pseudomonas aeruginosa (PRD-10); experiment: Minimum inhibitory concentration (MIC) in nutrient agar, Pseudomonas aeruginosa PRD-10
Method in brief: as §1

[7] = system: Pseudomonas aeruginosa (Pa); experiment: Minimum inhibitory concentration (MIC) in nutrient agar, Pseudomonas aeruginosa; settings: 30° C., 48 hours, read-out: Minimum Inhibitory Concentration, Pa
Method in brief: as §1

[8] = system: Salmonella choleraesuis (Se); experiment: Minimum inhibitory concentration (MIC) in nutrient agar, Salmonella choleraesuis; settings: Salmonella enterica
Method in brief: as §1

[9] = system: Staphylococcus aureus (Sa); experiment: Minimum inhibitory concentration (MIC) in nutrient agar, Staphylococcus aureus
Method in brief: as §1

[10] = system: Aspergillus niger (An); experiment: Minimum inhibitory concentration (MIC) in malt yeast agar, Aspergillus niger
Method in brief: (§2)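 Growth is scored at 30 °C after 72 h for fungi and 48 h for yeast on malt yeast agar (pH 5.5) containing compound at final levels from 500 down to zero ppm. Organisms are grown 7 days at 30 °C, suspended in saline with octylphenoxy polyethoxy ethanol, and diluted 1:9 before replicator inoculation.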

[11] = system: Candida albicans (Ca); experiment: Minimum inhibitory concentration (MIC) in malt yeast agar, Candida albicans
Method in brief: (§3)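 Agar dilution: test compound from a 1% acetone/water solution was mixed into malt yeast agar (pH 5.5) at 48 °C to final […], 25, 10, 5, 2.5, 1.0 and zero ppm. Plates dried 24 h, were replicator-inoculated with 1:9 saline-diluted suspensions of 7-day 30 °C cultures, and were read after 72 h (fungi) or 48 h (yeast) at 30 °C.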

[12] = system: Penicillium chrysogenum (Pc); experiment: Minimum inhibitory concentration (MIC) in malt yeast agar, Penicillium chrysogenum
Method in brief: as §2

[13] = system: Saccharomyces cerevisiae (Sc); experiment: Minimum inhibitory concentration (MIC) in malt yeast agar, Saccharomyces cerevisiae
Method in brief: as §3

[14] = system: Trichoderma viride (Tv); experiment: Minimum inhibitory concentration (MIC) in malt yeast agar, Trichoderma viride
Method in brief: as §2

[15] = system: Aureobasidium pullulan (Ap); experiment: Minimum inhibitory concentration (MIC) in malt yeast agar, Aureobasidium pullulan
Method in brief: as §2

[16] = system: Fusarium oxysporum (Fo); experiment: Minimum inhibitory concentration (MIC) in malt yeast agar, Fusarium oxysporum
Method in brief: as §2

[17] = 48 h, pH 8.2, read-out: Minimum Inhibitory Concentration, Bs
[18] = pH 6.8, nutrient agar, 30° C., 48 hours, read-out: Minimum Inhibitory Concentration, Bs
[19] = pH 6.8, read-out: Minimum Inhibitory Concentration, Ea
[20] = pH 8.2, read-out: Minimum Inhibitory Concentration, Ea
[21] = 48 h, pH 6.8, read-out: Minimum Inhibitory Concentration, Ec
[22] = 48 h, pH 8.2, read-out: Minimum Inhibitory Concentration, Ec
[23] = 48 h, pH 8.2, read-out: Minimum Inhibitory Concentration, Kp
[24] = pH 6.8, nutrient agar, 30° C., 48 hours, read-out: Minimum Inhibitory Concentration, Kp
[25] = pH 6.8, read-out: Minimum Inhibitory Concentration, Pv
[26] = pH 8.2, read-out: Minimum Inhibitory Concentration, Pv
[27] = 48 h, pH 6.8, read-out: Minimum Inhibitory Concentration, PRD
[28] = 48 h, pH 8.2, read-out: Minimum Inhibitory Concentration, PRD
[29] = 48 h, pH 6.8, read-out: Minimum Inhibitory Concentration, SC
[30] = 48 h, pH 8.2, read-out: Minimum Inhibitory Concentration, SC
[31] = 48 h, pH 8.2, read-out: Minimum Inhibitory Concentration, Sa
[32] = pH 6.8, nutrient agar, 30° C., 48 hours, read-out: Minimum Inhibitory Concentration, Sa
[33] = pH 5.5, malt yeast agar, 30° C., 72 hours for fungi, read-out: Minimum Inhibitory Concentration, An
[34] = pH 5.5, malt yeast agar, 30° C., 48 hours for yeast, read-out: Minimum Inhibitory Concentration, Ca
[35] = pH 5.5, malt yeast agar, 30° C., 72 hours for fungi, read-out: Minimum Inhibitory Concentration, PC
[36] = pH 5.5, malt yeast agar, 30° C., 48 hours for yeast, read-out: Minimum Inhibitory Concentration, SC
[37] = pH 5.5, malt yeast agar, 30° C., 72 hours for fungi, read-out: Minimum Inhibitory Concentration, Tv
[38] = pH 5.5, malt yeast agar, 30° C., read-out: Minimum Inhibitory Concentration, Ap
[39] = pH 5.5, malt yeast agar, 30° C., 72 hours for fungi, read-out: Minimum Inhibitory Concentration, Fo
[40] = 48 h, pH 6.8, read-out: Minimum Inhibitory Concentration, Bs
[41] = 72 h, pH 5.5, read-out: Minimum Inhibitory Concentration, An
[42] = pH 5.5, read-out: Minimum Inhibitory Concentration, Ap
[43] = pH 8.2, nutrient agar, 30° C., 48 hours, read-out: Minimum Inhibitory Concentration, Ec
[44] = pH 8.2, nutrient agar, 30° C., 48 hours, read-out: Minimum Inhibitory Concentration, Sa
[45] = 48 h, pH 5.5, read-out: Minimum Inhibitory Concentration, Ca
[46] = 72 h, pH 5.5, read-out: Minimum Inhibitory Concentration, Tv
[47] = 72 h, pH 5.5, read-out: Minimum Inhibitory Concentration, Fo

Row | Structure (SMILES) | MIC [1, 17] [mg/L] | MIC [1, 18] [mg/L] | MIC [2, 19] [mg/L] | MIC [2, 20] [mg/L] | MIC [3, 21] [mg/L] | MIC [3, 22] [mg/L] | MIC [4, 23] [mg/L] | MIC [4, 24] [mg/L] | MIC [5, 25] [mg/L] | MIC [5, 26] [mg/L] | MIC [6, 27] [mg/L] | MIC [6, 28] [mg/L] | MIC ([7]; pH 6.8, nutrient agar) [mg/L] | MIC ([7]; pH 8.2, nutrient agar) [mg/L] | MIC [8, 29] [mg/L] | MIC [8, 30] [mg/L] | MIC [9, 31] [mg/L] | MIC [9, 32] [mg/L] | MIC [12, 35] [mg/L] | MIC [13, 36] [mg/L] | also measured
1 | N#CSCSc1nsnc1-c1ccc([N+](=O)[O-])cc1 [Example XXIX, 4-(4-Nitrophenyl)-3-thiocyanatomethylthio-1,2,5-thiadiazole] | 500 (≈ 1610 µM) | 50 (≈ 161 µM) | 500 (≈ 1610 µM) | > 500 | 500 (≈ 1610 µM) | 500 (≈ 1610 µM) | > 500 | 500 (≈ 1610 µM) | 500 (≈ 1610 µM) | > 500 | 500 (≈ 1610 µM) | > 500 | 500 (≈ 1610 µM) | > 500 | 500 (≈ 1610 µM) | > 500 | 500 (≈ 1610 µM) | 500 (≈ 1610 µM) | 9 (≈ 29 µM) | 9 (≈ 29 µM) | MIC [10, 33]: 9 mg/L (≈ 29 µM); MIC [11, 34]: 9 mg/L (≈ 29 µM); MIC [14, 37]: 9 mg/L (≈ 29 µM); MIC [15, 38]: > 500 mg/L; MIC [16, 39]: 9 mg/L (≈ 29 µM)
2 | CS(=O)(=O)c1ccc(-c2nsnc2SCSC#N)cc1 [Example XXV, 4-(4-Methylsulfonylphenyl)-3-thiocyanatomethylthio-1,2,5-thiadiazole] | 500 (≈ 1460 µM) |  | 500 (≈ 1460 µM) | > 500 | 500 (≈ 1460 µM) | 500 (≈ 1460 µM) | > 500 | 500 (≈ 1460 µM) | 500 (≈ 1460 µM) | > 500 | 500 (≈ 1460 µM) | > 500 | 500 (≈ 1460 µM) | > 500 | 500 (≈ 1460 µM) | > 500 | 500 (≈ 1460 µM) | 500 (≈ 1460 µM) | 9 (≈ 26.2 µM) | 500 (≈ 1460 µM) | MIC [1, 40]: 500 mg/L (≈ 1460 µM); MIC [10, 41]: 250 mg/L (≈ 728 µM); MIC [11, 34]: 500 mg/L (≈ 1460 µM); MIC [14, 37]: > 500 mg/L; MIC [15, 42]: 250 mg/L (≈ 728 µM); MIC [16, 39]: > 500 mg/L
3 | N#CSCSc1nsnc1-c1ccc(C(F)(F)F)cc1 [Example XXVI, 4-(4-Trifluoromethyl-phenyl)-3-thiocyanatomethylthio-1,2,5-thiadiazole] |  | 9 (≈ 27 µM) | 500 (≈ 1500 µM) | > 500 | 500 (≈ 1500 µM) |  | > 500 | 500 (≈ 1500 µM) | 500 (≈ 1500 µM) | > 500 | 500 (≈ 1500 µM) | > 500 | 500 (≈ 1500 µM) | > 500 | 500 (≈ 1500 µM) | > 500 |  | 25 (≈ 75 µM) |  |  | MIC ([1]; pH 8.2, nutrient agar, 30° C., 48 hours, read-out: Minimum Inhibitory Concentration, Bs): 9 mg/L (≈ 27 µM); MIC [3, 43]: 250 mg/L (≈ 750 µM); MIC [9, 44]: 25 mg/L (≈ 75 µM); MIC [10, 41]: 25 mg/L (≈ 75 µM); MIC [11, 34]: > 500 mg/L; MIC ([12]; 72 h, pH 5.5, read-out: Minimum Inhibitory Concentration, PC): 2.5 mg/L (≈ 7.5 µM); MIC ([13]; 48 h, pH 5.5, read-out: Minimum Inhibitory Concentration, SC): 2.5 mg/L (≈ 7.5 µM); MIC [14, 37]: > 500 mg/L; MIC [15, 42]: 5 mg/L (≈ 15 µM); MIC [16, 39]: > 500 mg/L
4 | Cc1ccc(-c2nsnc2SCSC#N)cc1 [Example XXVII, 4-(4-Methylphenyl)-3-thiocyanatomethylthio-1,2,5-thiadiazole] | 25 (≈ 89.5 µM) | 25 (≈ 89.5 µM) | 500 (≈ 1790 µM) | 500 (≈ 1790 µM) | 500 (≈ 1790 µM) | 500 (≈ 1790 µM) | 500 (≈ 1790 µM) | 500 (≈ 1790 µM) | 500 (≈ 1790 µM) | 500 (≈ 1790 µM) |  | 500 (≈ 1790 µM) | 500 (≈ 1790 µM) | 500 (≈ 1790 µM) | 500 (≈ 1790 µM) |  |  | 250 (≈ 895 µM) | 9 (≈ 32.2 µM) | 9 (≈ 32.2 µM) | MIC ([6]; pH 6.8, nutrient agar, 30° C., 48 hours, read-out: Minimum Inhibitory Concentration, PRD): 250 mg/L (≈ 895 µM); MIC ([8]; pH 8.2, nutrient agar, 30° C., 48 hours, read-out: Minimum Inhibitory Concentration, SC): 250 mg/L (≈ 895 µM); MIC [9, 44]: 25 mg/L (≈ 89.5 µM); MIC [10, 33]: 9 mg/L (≈ 32.2 µM); MIC [11, 45]: 50 mg/L (≈ 179 µM); MIC [14, 46]: 100 mg/L (≈ 358 µM); MIC [15, 38]: 9 mg/L (≈ 32.2 µM); MIC [16, 47]: 25 mg/L (≈ 89.5 µM)
5 | N#CSCSc1nsnc1-c1cccs1 [Example XXX, 4-(2-Thiophene)-3-thiocyanatomethylthio-1,2,5-thiadiazole] | 500 (≈ 1840 µM) |  | 500 (≈ 1840 µM) | > 500 | 500 (≈ 1840 µM) |  | > 500 | 500 (≈ 1840 µM) | 500 (≈ 1840 µM) | > 500 | 500 (≈ 1840 µM) | > 500 | 500 (≈ 1840 µM) | > 500 | 500 (≈ 1840 µM) | > 500 | > 500 | 500 (≈ 1840 µM) | 9 (≈ 33.2 µM) | 9 (≈ 33.2 µM) | MIC [1, 40]: 500 mg/L (≈ 1840 µM); MIC [3, 43]: 250 mg/L (≈ 921 µM); MIC [10, 41]: 50 mg/L (≈ 184 µM); MIC [11, 45]: 100 mg/L (≈ 368 µM); MIC [14, 46]: 250 mg/L (≈ 921 µM); MIC [15, 38]: 25 mg/L (≈ 92.1 µM); MIC [16, 47]: 100 mg/L (≈ 368 µM)
